The source of these data is BindingDB's records for doi:10.1021/jm00107a051 (Merck Sharp and Dohme Research Laboratories, 1991).

The structures appear in SMILES notation.

The experiment addresses T1, Dimer of Gag-Pol polyprotein [489-587] (Human immunodeficiency virus 1, UniProt P12497).
T1 construct: 489-587
Briefly: Protease Inhibition Assay. Particulars: pH 5.5; 30 °C. The procedure:
Sensitivity of HIV-1 protease activity to protease inhibitors was determined by a peptide substrate cleavage assay. Protease products were analyzed on a reverse-phase high-pressure liquid chromatograph.

Consider `CC(C)(C)OC(=O)N[C@@H](Cc1ccccc1)[C@@H](O)C[C@@H](Cc1ccccc1)C(=O)NC1Cc2ccccc2C1` [tert-butyl N-[(2S,3S,5R)-5-benzyl-5-(2,3-dihydro-1H-inden-2-ylcarbamoyl)-3-hydroxy-1-phenylpentan-2-yl]carbamate], for which the midpoint of inhibition, the IC50, lay at 19 nM.

Consider `CC(C)(C)OC(=O)N[C@@H](Cc1ccccc1)[C@@H](O)C[C@@H](Cc1ccccc1)C(=O)N[C@@H]1c2ccccc2C[C@@H]1O` [tert-butyl N-[(2S,3S,5R)-5-benzyl-3-hydroxy-5-{[(1R,2S)-2-hydroxy-2,3-dihydro-1H-inden-1-yl]carbamoyl}-1-phenylpentan-2-yl]carbamate], for which the IC50 – broadly, the concentration that gives 50% inhibition – amounted to 229 nM.

For `CC(C)(C)OC(=O)N[C@@H](Cc1ccccc1)[C@@H](O)C[C@@H](Cc1ccccc1)C(=O)N[C@H]1c2ccccc2C[C@H]1C(N)=O` [tert-butyl N-[(2S,3S,5R)-5-benzyl-5-{[(1R,2R)-2-carbamoyl-2,3-dihydro-1H-inden-1-yl]carbamoyl}-3-hydroxy-1-phenylpentan-2-yl]carbamate], the IC50 was determined as 1.8 nM. Compared with the last molecule, the IC50 is about 130-fold lower.

`CC(C)(C)OC(=O)N[C@@H](Cc1ccccc1)[C@@H](O)C[C@@H](Cc1ccccc1)C(=O)N[C@H]1c2ccccc2[C@@H](N)[C@H]1O` [tert-butyl N-[(2S,3S,5R)-5-{[(1S,2R,3R)-3-amino-2-hydroxy-2,3-dihydro-1H-inden-1-yl]carbamoyl}-5-benzyl-3-hydroxy-1-phenylpentan-2-yl]carbamate]: inhibition was half-maximal at 1.9 nM (IC50).
